Like-named read-outs stand apart in the source and are kept apart here.
Experiments:
[1] = target: T1, rat GPR14 (U-II receptor) (Rattus norvegicus, UniProt P49684); assay: Calcium flux assay (FLIPR); format: cell-based; settings: Inhibition of acetyl-cyclic[Cys-Phe-Trp-Lys-(2-Nal)-Cys]-NH2 (1 nM) induced Ca2+ mobilization (FLIPR) in CHO cells transfected with rat UII receptor; 5 min incubation
T1 construct: expressed in transfected cells
T1 sequence (P49684 1-386): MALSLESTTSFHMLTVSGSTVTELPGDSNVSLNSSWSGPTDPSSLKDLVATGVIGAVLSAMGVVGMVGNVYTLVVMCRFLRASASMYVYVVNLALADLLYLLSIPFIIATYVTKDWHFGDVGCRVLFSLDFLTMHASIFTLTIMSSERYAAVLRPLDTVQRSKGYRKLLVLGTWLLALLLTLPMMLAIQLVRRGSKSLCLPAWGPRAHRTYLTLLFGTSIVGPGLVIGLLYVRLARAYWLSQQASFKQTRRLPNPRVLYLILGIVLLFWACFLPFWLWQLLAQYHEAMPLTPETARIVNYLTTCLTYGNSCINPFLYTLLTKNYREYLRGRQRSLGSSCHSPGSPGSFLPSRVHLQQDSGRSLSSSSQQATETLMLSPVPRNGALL
How it was run: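 Stable CHO cell line expressing cloned rat U-II receptor, seeded 24 h before assay, loaded with FLIPR calcium dye in HBSS/20 mM HEPES/0.1% BSA/2.5 mM probenecid, pH 7.4, for 1 hr at 37° C. Calcium mobilization read at room temperature (23° C.).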

Human UII receptors = target: T2, Human UII receptors (Homo sapiens, UniProt Q9UKP6); assay: Human radioligand binding assay, (125I)-U-II on HSMM
T2 construct: host or cells: Human Skeletal Muscle Myoblasts (HSMM), intact adherent cells
T2 sequence (Q9UKP6 1-389): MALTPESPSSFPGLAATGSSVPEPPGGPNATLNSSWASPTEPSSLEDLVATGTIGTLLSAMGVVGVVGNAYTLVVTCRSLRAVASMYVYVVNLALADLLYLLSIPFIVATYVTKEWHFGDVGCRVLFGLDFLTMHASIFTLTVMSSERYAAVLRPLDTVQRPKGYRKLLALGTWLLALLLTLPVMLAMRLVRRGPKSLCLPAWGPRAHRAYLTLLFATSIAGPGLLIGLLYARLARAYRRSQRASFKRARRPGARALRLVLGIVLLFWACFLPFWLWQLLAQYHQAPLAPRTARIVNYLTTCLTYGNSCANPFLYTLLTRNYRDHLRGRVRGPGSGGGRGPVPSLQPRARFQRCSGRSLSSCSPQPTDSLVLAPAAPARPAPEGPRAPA
Method: Human Skeletal Muscle Myoblasts (HSMM) were obtained from Cambrex, and were cultured according to manufacturer's instruction. Cell viability was examined by trypan blue exclusion. Cells at less than 4 passages were used in all studies. […] The binding medium used was Dulbecco's modified Eagle's medium (DMEM) containing 2 mg/ml BSA and 25 mM HEPES (pH 7.4). […] The cells were washed 4× with the binding medium and solubilized in 1% SDS and 0.5 N NaOH. Radioactivity was quantified by gamma counting.

[2] = 0.150 nM (125I)-U-II, intact Human Skeletal Muscle Myoblasts, 3 hrs, 25° C., read-out: Ki

Compound	Ki (Human UII receptors; [2]) [nM]	IC50 [1] [nM]	Ki (Human UII receptors) [nM]
CC(C)(C)OC(=O)NCCCCNC(=O)c1ccccc1C1CCN(CCN2C(=O)COc3ccccc32)CC1 [Cpd 35, [4-(2-{1-[2-(3-oxo-2,3-dihydro-benzo[1,4]oxazin-4-yl)-ethyl]-piperidin-4-yl}-benzoylamino)-butyl]-carbamic acid tert-butyl ester]	590	3000	–
CC(C)(C)CC(=O)NCCCCCNC(=O)c1cc(Cl)ccc1C1CCN(CCN2C(=O)COc3ccccc32)CC1 [Cpd 76, 5-chloro-N-[5-(3,3-dimethyl-butyrylamino)-pentyl]-2-{1-[2-(3-oxo-2,3-dihydro-benzo[1,4]oxazin-4-yl)-ethyl]-piperidin-4-yl}-benzamide]	–	150	43
O=C(NCCc1ccc2ccccc2c1)c1ccccc1C1CCN(CCN2C(=O)COc3ccccc32)CC1 [Cpd 20, N-(2-naphthalen-2-yl-ethyl)-2-{1-[2-(3-oxo-2,3-dihydro-benzo[1,4]oxazin-4-yl)-ethyl]-piperidin-4-yl}-benzamide]	720	2000	–
CC(C)(C)OC(=O)NCCCCNC(=O)c1cc(Cl)ccc1C1CCN(CCN2C(=O)COc3ccccc32)CC1 [Cpd 60, [4-(5-chloro-2-{1-[2-(3-oxo-2,3-dihydro-benzo[1,4]oxazin-4-yl)-ethyl]-piperidin-4-yl}-benzoylamino)-butyl]-carbamic acid tert-butyl ester]	150	500	–
CC(C)(C)OC(=O)NCCCCCNC(=O)c1cc(Cl)ccc1C1CC2CCC(C1)N2CCN1C(=O)COc2ccccc21 (centres unmarked) [Cpd 100, [5-(5-chloro-2-{8-[2-(3-oxo-2,3-dihydro-benzo[1,4]oxazin-4-yl)-ethyl]-8-aza-bicyclo[3.2.1]oct-3-yl}-benzoylamino)-pentyl]-carbamic acid tert-butyl ester]	1200	450	–
O=C(NCCc1ccccc1)c1ccccc1C1CCN(CCN2C(=O)COc3ccccc32)CC1 [Cpd 1, 2-{1-[2-(3-oxo-2,3-dihydro-benzo[1,4]oxazin-4-yl)-ethyl]-piperidin-4-yl}-N-phenethyl-benzamide]	2900	7500	–
CC(C)(C)OC(=O)NCCCCCNC(=O)c1cc(Cl)ccc1C1=CC2CCC(C1)N2CCN1C(=O)COc2ccccc21 (centres unmarked) [Cpd 95, [5-(5-chloro-2-{8-[2-(3-oxo-2,3-dihydro-benzo[1,4]oxazin-4-yl)-ethyl]-8-aza-bicyclo[3.2.1]oct-2-en-3-yl}-benzoylamino)-pentyl]-carbamic acid tert-butyl ester]	1300	640	–
CC(C)(C)OC(=O)NCCCCCNC(=O)c1cc(Cl)ccc1C1CCN(CCN2C(=O)COc3ccccc32)CC1 [Cpd 70, [5-(5-chloro-2-{1-[2-(3-oxo-2,3-dihydro-benzo[1,4]oxazin-4-yl)-ethyl]-piperidin-4-yl}-benzoylamino)-pentyl]-carbamic acid tert-butyl ester]	25	32	–
CC(C)(C)OC(=O)N1CCN(CCNC(=O)c2cc(Cl)ccc2C2=CC3CCC(C2)N3CCN2C(=O)COc3ccccc32)CC1 (centres unmarked) [Cpd 94, 4-[2-(5-chloro-2-{8-[2-(3-oxo-2,3-dihydro-benzo[1,4]oxazin-4-yl)-ethyl]-8-aza-bicyclo[3.2.1]oct-2-en-3-yl}-benzoylamino)-ethyl]-piperazine-1-carboxylic acid tert-butyl ester]	1900	290	–
O=C(NCCc1ccc2ccccc2c1)c1cc(Cl)ccc1C1CCN(CCN2C(=O)COc3ccccc32)CC1 [Cpd 61, 5-chloro-N-(2-naphthalen-2-yl-ethyl)-2-{1-[2-(3-oxo-2,3-dihydro-benzo[1,4]oxazin-4-yl)-ethyl]-piperidin-4-yl}-benzamide]	260	2000	–
O=C(NCCc1ccc(Br)cc1)c1ccccc1C1CCN(CCN2C(=O)COc3ccccc32)CC1 [Cpd 34, N-[2-(4-bromo-phenyl)-ethyl]-2-{1-[2-(3-oxo-2,3-dihydro-benzo[1,4]oxazin-4-yl)-ethyl]-piperidin-4-yl}-benzamide]	620	3000	–

More lines, main results first:

Ki (Human UII receptors; [2]) [nM]	Compound	IC50 [1] [nM]	Ki (Human UII receptors) [nM]
30	O=C(NCC1CCN(S(=O)(=O)Cc2ccccc2)CC1)c1cc(Cl)ccc1C1CCN(CCN2C(=O)COc3ccccc32)CC1 [Cpd 72, 5-chloro-2-{1-[2-(3-oxo-2,3-dihydro-benzo[1,4]oxazin-4-yl)-ethyl]-piperidin-4-yl}-N-(1-phenylmethanesulfonyl-piperidin-4-ylmethyl)-benzamide]	53	–
840	O=C(NCCNC(=O)c1ccccc1C1CCN(CCN2C(=O)COc3ccccc32)CC1)Nc1cccc2ccccc12 [Cpd 55, N-[2-(3-naphthalen-1-yl-ureido)-ethyl]-2-{1-[2-(3-oxo-2,3-dihydro-benzo[1,4]oxazin-4-yl)-ethyl]-piperidin-4-yl}-benzamide]	2000	–
140	CC(C)(C)OC(=O)N1CCC(CNC(=O)c2cc(Cl)ccc2C2CCN(CCN3C(=O)COc4ccccc43)CC2)CC1 [Cpd 58, 4-[(5-chloro-2-{1-[2-(3-oxo-2,3-dihydro-benzo[1,4]oxazin-4-yl)-ethyl]-piperidin-4-yl}-benzoylamino)-methyl]-piperidine-1-carboxylic acid tert-butyl ester]	600	–
54	O=C(NCC1CCN(C(=O)OCc2ccccc2)CC1)c1cc(Cl)ccc1C1CCN(CCN2C(=O)COc3ccccc32)CC1 [Cpd 63, 4-[(5-chloro-2-{1-[2-(3-oxo-2,3-dihydro-benzo[1,4]oxazin-4-yl)-ethyl]-piperidin-4-yl}-benzoylamino)-methyl]-piperidine-1-carboxylic acid benzyl ester]	400	–
34	O=C(NCCCCCNC(=O)c1cc(Cl)ccc1C1CCN(CCN2C(=O)COc3ccccc32)CC1)OCc1ccccc1 [Cpd 75, [5-(5-chloro-2-{1-[2-(3-oxo-2,3-dihydro-benzo[1,4]oxazin-4-yl)-ethyl]-piperidin-4-yl}-benzoylamino)-pentyl]-carbamic acid benzyl ester]	40	–
37	O=C(NCCCCCNC(=O)c1cc(Cl)ccc1C1CCN(CCN2C(=O)COc3ccccc32)CC1)NCc1ccccc1 [Cpd 77, N-[5-(3-benzyl-ureido)-pentyl]-5-chloro-2-{1-[2-(3-oxo-2,3-dihydro-benzo[1,4]oxazin-4-yl)-ethyl]-piperidin-4-yl}-benzamide]	27	–
100	CC(C)(C)OC(=O)NCCCCCCNC(=O)c1cc(Cl)ccc1C1CCN(CCN2C(=O)COc3ccccc32)CC1 [Cpd 74, [6-(5-chloro-2-{1-[2-(3-oxo-2,3-dihydro-benzo[1,4]oxazin-4-yl)-ethyl]-piperidin-4-yl}-benzoylamino)-hexyl]-carbamic acid tert-butyl ester]	45	–
47	CC(C)(C)OC(=O)N1CCC(CCNC(=O)c2cc(Cl)ccc2C2CCN(CCN3C(=O)COc4ccccc43)CC2)CC1 [Cpd 68, 4-[2-(5-chloro-2-{1-[2-(3-oxo-2,3-dihydro-benzo[1,4]oxazin-4-yl)-ethyl]-piperidin-4-yl}-benzoylamino)-ethyl]-piperidine-1-carboxylic acid tert-butyl ester]	100	–
210	CC(CN1C(=O)COc2ccccc21)N1CCC(c2ccc(Cl)cc2C(=O)NCC2CCN(S(=O)(=O)Cc3ccccc3)CC2)CC1 (centres unmarked) [Cpd 84, 5-chloro-2-{1-[1-methyl-2-(3-oxo-2,3-dihydro-benzo[1,4]oxazin-4-yl)-ethyl]-piperidin-4-yl}-N-(1-phenylmethanesulfonyl-piperidin-4-ylmethyl)-benzamide]	2000	–
57	CC(C)(C)OC(=O)N1CCN(CCNC(=O)c2cc(Cl)ccc2C2CCN(CCN3C(=O)COc4ccccc43)CC2)CC1 [Cpd 66, 4-[2-(5-chloro-2-{1-[2-(3-oxo-2,3-dihydro-benzo[1,4]oxazin-4-yl)-ethyl]-piperidin-4-yl}-benzoylamino)-ethyl]-piperazine-1-carboxylic acid tert-butyl ester]	15	–
120	O=C(NCCCCCNC(=O)c1cc(Cl)ccc1C1CCN(CCN2C(=O)COc3ccccc32)CC1)NCCc1ccccc1 [Cpd 82, 5-chloro-2-{1-[2-(3-oxo-2,3-dihydro-benzo[1,4]oxazin-4-yl)-ethyl]-piperidin-4-yl}-N-[5-(3-phenethyl-ureido)-pentyl]-benzamide]	170	–
